Each structure is given as a SMILES string.

For this experiment, the target named is T1, human GPR120 (Homo sapiens, UniProt Q5NUL3).
T1 construct: expressed in transfected cells; host or cells: HEK293T, transient transfection with PEI
T1 sequence (Q5NUL3 1-361): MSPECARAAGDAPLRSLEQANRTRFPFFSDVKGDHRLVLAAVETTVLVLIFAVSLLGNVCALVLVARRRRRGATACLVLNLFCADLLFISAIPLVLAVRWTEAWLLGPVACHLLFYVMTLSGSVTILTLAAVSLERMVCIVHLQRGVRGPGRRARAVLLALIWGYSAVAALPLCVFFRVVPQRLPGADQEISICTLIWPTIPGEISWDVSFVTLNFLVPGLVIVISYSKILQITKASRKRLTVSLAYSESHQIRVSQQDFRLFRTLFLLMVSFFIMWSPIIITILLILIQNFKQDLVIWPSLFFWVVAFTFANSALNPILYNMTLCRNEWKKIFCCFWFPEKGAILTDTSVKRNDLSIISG
The experiment is described as follows: Human GPR120-β Arrestin 2 BRET agonist assay. The class given is cell-based. As to conditions: HEK293T cells transiently co-expressing hGPR120-eYFP and β-arrestin 2-RLuc; BRET normalised to DMSO (0%) and TUG-891 (100%); read-out: hGPR120 pEC50 (converted). The method, then: pEC50 data was obtained by the following procedure:
Human GPR120-β Arrestin 2 Bio-Luminescence Resonance Energy Transfer (BRET) Agonist Assay Procedure
HEK293T cells were cultured in growth media composed of DMEM L-glutamine media supplemented with 10% (v:v) fetal bovine serum (FBS) and 1% (v:v) 10,000 units penicillin/10 mgml^−1 streptomycin at 37° C., 5% CO2. HEK293T cells transiently co-expressing human GPR120 […] and b-arrestin 2 were generated by transfection with plasmids encoding a construct of hGPR120 […] fused at its C terminal with enhanced yellow fluorescent protein (eYFP), and another encoding β-arrestin 2 fused to Renilla luciferase (RLuc), using Polyethylenimine (PEI) as the transfection reagent.
Transfected cells were cryopreserved in batches for consistency between replicate assays. Twenty-four hours post transfection, cells were harvested with non-enzymatic cell dissociation buffer and re-suspended in DMEM medium supplemented with 10% DMSO and 10% FBS before being transferred first to −80° C. overnight and then to liquid nitrogen for long-term storage. On the day prior to the assay, cells were thawed at 37° C. and re-suspended in growth media. A 96 well white opaque bottom microtitre plate was then seeded with 40,000 cells in a volume of 100 μl growth media per well and seeded plates were then incubated overnight at 37° C., 5% CO2. On the day of the BRET experiment, cells were washed twice with BRET assay buffer (Hanks balanced salt solution (HBSS) supplemented with 10 mM HEPES (pH 7.4)), then 80 μl per well of BRET assay buffer was added before the plate was incubated for 30 minutes at 37° C., 5% CO2. Then, Renilla luciferase substrate coelenterazine h (5 μM) was added to the cells and incubated at 37° C. for 10 minutes before the addition of GPR120 agonist (TUG-891) or test compound for a further 5 minutes at 37° C.
Bio-luminescence at λ 535 nm and λ 475 nm was then measured with a Pherastar FsX instrument, and the λ 535/λ 475 ratio of bio-luminescence was then used to calculate a BRET value. hGPR120 agonist potency values (pEC50) were calculated by normalising the BRET values to the DMSO vehicle (0% control) and TUG-891 (100% control) and then fitting the normalised data to a 3-parameter concentration-response curve.
Background: BRET reads energy transfer from a luciferase to a nearby fluorophore.
`O=C(O)CCc1ccc2c(c1)CCN(c1cccc(C(F)(F)F)c1)C2` [Compound 16, 3-(2-(3-(trifluoromethyl)phenyl)-1,2,3,4-tetrahydroisoquinolin-6-yl)propanoic acid]: the EC50 is 0.501 µM. With `CC(Cc1ccc2c(c1)CCN(c1cc(OC3CCC3)ccc1F)C2)C(=O)O` (racemic) [Compound 27, 3-(2-(5-cyclobutoxy-2-fluorophenyl)-1,2,3,4-tetrahydroisoquinolin-6-yl)-2-methylpropanoic acid] the figure was 0.1 µM; with `CC1(C)Cc2cc(Cl)cc(N3CCc4cc(CCC(=O)O)ccc4C3)c2O1` [Compound 15, 3-(2-(5-chloro-2,2-dimethyl-2,3-dihydrobenzofuran-7-yl)-1,2,3,4-tetrahydroisoquinolin-6-yl)propanoic acid], 0.631 µM; with `O=C(O)CCc1cc2c(cc1F)CN(c1cc(OC3CCC3)ccc1F)CC2` [Compound 39, 3-(2-(5-cyclobutoxy-2-fluorophenyl)-7-fluoro-1,2,3,4-tetrahydroisoquinolin-6-yl)propanoic Acid], 0.0631 µM. Consider `O=C(O)CCc1ccc2c(c1)CCN(c1ncc(F)c(OC3CCC3)n1)C2` [Compound 8, 3-(2-(4-cyclobutoxy-5-fluoropyrimidin-2-yl)-1,2,3,4-tetrahydroisoquinolin-6-yl)propanoic acid], for which the EC50 was 0.0631 µM. In the case of `O=C(O)C1CC1c1ccc2c(c1)CCN(c1cc(OC3CCC3)ccc1F)C2` (single isomer, unassigned) [34 isomer 2], the EC50 was 0.0794 µM.

As for `COc1cc(Cl)cc(N2CCc3ccc(CCC(=O)O)cc3C2)c1` [Compound 31, 3-(2-(3-chloro-5-methoxyphenyl)-1,2,3,4-tetrahydroisoquinolin-7-yl)propanoic acid], the EC50 was 2.51 µM. In the case of `O=C(O)CCc1ccc2c(c1)CCN(c1cc(OC(F)(F)F)ccc1F)C2` [Compound 1, 3-(2-(2-Fluoro-5-(trifluoromethoxy)phenyl)-1,2,3,4-tetrahydroisoquinolin-6-yl)propanoic Acid] it was 0.0398 µM; in that of `O=C(O)C1CC1c1ccc2c(c1)CCN(c1cc(OC(F)(F)F)ccc1F)CC2` (stereo not shown) [Compound 52, 2-(3-(2-fluoro-5-(trifluoromethoxy)phenyl)-2,3,4,5-tetrahydro-1H-benzo[d]azepin-7-yl)cyclopropanecarboxylic Acid], 0.126 µM. Regarding `O=C(O)C1CC1c1ccc2c(c1)CCN(c1cc(OC3CCC3)cc(F)c1F)C2` (stereo not shown) [Compound 36, 2-(2-(5-cyclobutoxy-2,3-difluorophenyl)-1,2,3,4-tetrahydroisoquinolin-6-yl)cyclopropane-1-carboxylic acid], the EC50 is 0.1 µM. With `O=C(O)CCc1ccc2c(c1)CCN(c1ccnc(C3CC3)n1)C2` [Compound 18, 3-(2-(2-cyclopropylpyrimidin-4-yl)-1,2,3,4-tetrahydroisoquinolin-6-yl)propanoic acid] the figure was 25.1 µM; with `O=C(O)CCc1ccc2c(c1)CCN(c1cc(F)cc(OC3CCC3)c1)C2` [Compound 19, 3-(2-(3-cyclobutoxy-5-fluorophenyl)-1,2,3,4-tetrahydroisoquinolin-6-yl)propanoic acid], 0.0251 µM; with `N#Cc1ccc(OC(F)(F)F)cc1N1CCc2cc(CCC(=O)O)ccc2C1` [Compound 6, 3-(2-(2-cyano-5-(trifluoromethoxy)phenyl)-1,2,3,4-tetrahydroisoquinolin-6-yl)propanoic acid], 0.0794 µM. On to `O=C(O)C1CC1c1ccc2c(c1)CCN(c1cccc(Oc3ccccc3)c1)C2` (stereo not shown) [Compound 38, 2-(2-(3-Phenoxyphenyl)-1,2,3,4-tetrahydroisoquinolin-6-yl)cyclopropanecarboxylic Acid], for which the EC50 is 0.0631 µM.

In the case of `O=C(O)CCc1ccc2c(c1)CCN(c1cc(OC3CCC3)ccc1F)CC2` [Compound 46, 3-(3-(5-cyclobutoxy-2-fluorophenyl)-2,3,4,5-tetrahydro-1H-benzo[d]azepin-7-yl)propanoic acid], the EC50 was 0.0794 µM. Consider `O=C(O)CCc1ccc2c(c1)CCN(c1cccc(OC3CCC3)c1)C2` [Compound 12, 3-(2-(3-cyclobutoxyphenyl)-1,2,3,4-tetrahydroisoquinolin-6-yl)propanoic acid], for which the EC50 is 0.158 µM. Regarding `CC(C)Oc1cccc(N2CCc3cc(CCC(=O)O)ccc3C2)c1` [Compound 28, 3-(2-(3-Isopropoxyphenyl)-1,2,3,4-tetrahydroisoquinolin-6-yl)propanoic Acid], the EC50 was 0.501 µM. For `O=C(O)CCc1ccc2c(c1)CCN(c1cccc(OC3CCC3)n1)C2` [Compound 21, 3-(2-(6-cyclobutoxypyridin-2-yl)-1,2,3,4-tetrahydroisoquinolin-6-yl)propanoic acid], the EC50 is 0.0398 µM.

`O=C(O)C1CC1c1ccc2c(c1)CCN(c1nc(OC3CCC3)ccc1F)C2` (single isomer, unassigned) [37 Isomer 1]: the EC50 was 0.0631 µM. Regarding `O=C(O)CCc1ccc2c(c1)CCN(c1cc(OC3CCC3)ccc1F)C2` [Compound 13, 3-(2-(5-cyclobutoxy-2-fluorophenyl)-1,2,3,4-tetrahydroisoquinolin-6-yl)propanoic acid], the EC50 was 0.02 µM. In the case of `COc1ccc(Cl)cc1N1CCc2cc(CCC(=O)O)ccc2C1` [Compound 29, 3-(2-(5-chloro-2-methoxyphenyl)-1,2,3,4-tetrahydroisoquinolin-6-yl)propanoic acid] it was 1 µM. With `O=C(O)C1CC1c1ccc2c(c1)CCN(c1cc(OC(F)(F)F)ccc1F)C2` (stereo not shown) [Compound 35, 2-(2-(2-fluoro-5-(trifluoromethoxy)phenyl)-1,2,3,4-tetrahydroisoquinolin-6-yl)cyclopropane-1-carboxylic acid] the figure was 0.1 µM. With `O=C(O)CCc1ccc2c(c1)CCN(c1cc(OC3CC3)ccc1F)CC2` [Compound 47, 3-(3-(5-cyclopropoxy-2-fluorophenyl)-2,3,4,5-tetrahydro-1H-benzo[d]azepin-7-yl)propanoic acid] the figure was 0.158 µM; with `Cc1cc(C)cc(N2CCc3ccc(CCC(=O)O)cc3C2)c1` [Compound 30, 3-(2-(3,5-dimethylphenyl)-1,2,3,4-tetrahydroisoquinolin-7-yl)propanoic Acid], 1.58 µM; with `CO[C@H]1C[C@H](Oc2ccc(F)c(N3CCc4cc(CCC(=O)O)ccc4C3)c2)C1` [Compound 2, 3-(2-(2-fluoro-5-((1r,3r)-3-methoxycyclobutoxy)phenyl)-1,2,3,4-tetrahydroisoquinolin-6-yl)propanoic acid], 0.158 µM.

Consider `O=C(O)CCc1ccc2c(c1)CCN(c1nc(OC3CCC3)ccc1F)C2` [Compound 7, 3-(2-(6-cyclobutoxy-3-fluoropyridin-2-yl)-1,2,3,4-tetrahydroisoquinolin-6-yl)propanoic acid], for which the EC50 is 0.0158 µM. In the case of `O=C(O)CCc1ccc2c(c1)CCN(c1cccc(OC(F)(F)F)n1)C2` [Compound 22, 3-(2-(6-(trifluoromethoxy)pyridin-2-yl)-1,2,3,4-tetrahydroisoquinolin-6-yl)propanoic acid] it was 0.316 µM; in that of `C[C@H](Cc1ccc2c(c1)CCN(c1cc(OC(F)(F)F)ccc1F)CC2)C(=O)O` [Compound 51, (R)-3-(3-(2-fluoro-5-(trifluoromethoxy)phenyl)-2,3,4,5-tetrahydro-1H-benzo[d]azepin-7-yl)-2-methylpropanoic Acid], 0.501 µM.

(Values after US11220483B2, “Tetrahydro-benzo[d]azepine derivatives as GPR120 modulators” (CALDAN THERAPEUTICS LIMITED, priority 2018, dated 2022).)
